Test results as given in patent US7595404B2, “Thiazolyl-substituted carbocyclic 1,3-diones as pesticidal agents” (Bayer CropScience AG, priority 2001, dated 2009).

How the values were obtained:
[1] = system: Sinapis; assay: Post-emergence test, Sinapis; format: in vivo; conditions: post-emergence/greenhouse; 250 g a.i./ha; after three weeks
Method: (§1) • Solvent: 5 parts by weight of acetone • Emulsifier: 1 part by weight of alkylaryl polyglycol ether
(§2) To produce a suitable preparation of active compound, 1 part by weight of active compound is mixed with the stated amount of solvent, the stated amount of emulsifier is added and the concentrate is diluted with water to the desired concentration.
(§3) Test plants of a height of 5-15 cm are sprayed with the preparation of active compound such that the particular amounts of active compound desired are applied per unit area. The concentration of the spray liquor is chosen such that the particular amounts of active compound desired are applied in 1000 l of water/ha.
(§4) After three weeks, the degree of damage to the plants is rated in % damage in comparison to the development of the untreated control.
(§5) The figures denote: • 0% =no effect (like untreated control) • 100% =total destruction

[2] = system: Setaria; assay: Pre-emergence test, Setaria; format: in vivo; conditions: pre-emergence/greenhouse; 125 g a.i./ha; after three weeks
Method: as §1, §2
(§6) Seeds of the test plants are sown in normal soil. After about 24 hours, the soil is sprayed with the preparation of active compound such that the particular amounts of active compound desired are applied per unit area. The concentration of the spray liquor is chosen such that the particular amounts of active compound desired are applied in 1000 l of water/ha.
as §4, §5

[3] = system: Alopecurus; assay: Post-emergence test, Alopecurus; format: in vivo; conditions: post-emergence/greenhouse; 250 g a.i./ha; after three weeks
Method: as §1, §2, §3, §4, §5

[4] = system: Soya bean; assay: Pre-emergence test, Soya bean; format: in vivo; conditions: pre-emergence/greenhouse; 125 g a.i./ha; after three weeks; crop
Method: as §1, §2, §6, §4, §5

[5] = system: greenhouse red spider mite (Tetranychus urticae); assay: Tetranychus test (OP-resistant/dip treatment); format: in vivo; conditions: 100 ppm, dipped bean plants
Method: Tetranychus test (OP-Resistant/Dip Treatment)
• Solvent: 30 parts by weight of dimethylformamide • Emulsifier: 1 part by weight of alkylaryl polyglycol ether
To produce a suitable preparation of active compound, 1 part by weight of active compound is mixed with the stated amounts of solvent and emulsifier, and the concentrate is diluted with emulsifier-containing water to the desired concentration.
Bean plants (Phaseolus vulgaris) which are heavily infested by all stages of the greenhouse red spider mite (Tetranychus urticae) are dipped into a preparation of active compound of the desired concentration.
After the desired period of time, the effect in % is determined. 100% means that all spider mites have been killed; 0% means that none of the spider mites have been killed.

[6] = system: Stellaria; assay: Pre-emergence test, Stellaria; format: in vivo; conditions: pre-emergence/greenhouse; 125 g a.i./ha; after three weeks
Method: as §1, §2, §6, §4, §5

[7] = system: Matricaria; assay: Pre-emergence test, Matricaria; format: in vivo; conditions: pre-emergence/greenhouse; 125 g a.i./ha; after three weeks
Method: as §1, §2, §6, §4, §5

[8] = system: Lolium; assay: Pre-emergence test, Lolium; format: in vivo; conditions: pre-emergence/greenhouse; 125 g a.i./ha; after three weeks
Method: as §1, §2, §6, §4, §5

[9] = system: Avena fatua; assay: Post-emergence test, Avena fatua; format: in vivo; conditions: post-emergence/greenhouse; 250 g a.i./ha; after three weeks
Method: as §1, §2, §3, §4, §5

[10] = system: Setaria; assay: Post-emergence test, Setaria; format: in vivo; conditions: post-emergence/greenhouse; 250 g a.i./ha; after three weeks
Method: as §1, §2, §3, §4, §5

[11] = system: Meloidogyne incognita; assay: Meloidogyne test; format: in vivo; conditions: 20 ppm active compound, nematicidal action by gall formation on lettuce roots
Method: Meloidogyne Test • Solvent: 30 parts by weight of dimethylformamide • Emulsifier: 1 part by weight of alkylaryl polyglycol ether To produce a suitable preparation of active compound, 1 part by weight of active compound is mixed with the stated amounts of solvent and emulsifier, and the concentrate is diluted with water to the desired concentration. Containers are filled with sand, solution of active compound, Meloidogyne incognita egg/larvae suspension and lettuce seeds. The lettuce seeds germinate the plants develop. On the roots, galls are formed. After the desired period of time, the nematicidal action is determined in % by the gall formation. 100% means that no galls have been found; 0% means that the number of galls on the treated plants corresponds to that of the untreated control.

[12] = system: Avena fatua; assay: Pre-emergence test, Avena fatua; format: in vivo; conditions: pre-emergence/greenhouse; 125 g a.i./ha; after three weeks
Method: as §1, §2, §6, §4, §5

[13] = system: Sugar beet; assay: Pre-emergence test, Sugar beet; format: in vivo; conditions: pre-emergence/greenhouse; 125 g a.i./ha; after three weeks; crop
Method: as §1, §2, §6, §4, §5

[14] = system: Alopecurus; assay: Pre-emergence test, Alopecurus; format: in vivo; conditions: pre-emergence/greenhouse; 125 g a.i./ha; after three weeks
Method: as §1, §2, §6, §4, §5

[15] = system: Polygonum; assay: Pre-emergence test, Polygonum; format: in vivo; conditions: pre-emergence/greenhouse; 125 g a.i./ha; after three weeks
Method: as §1, §2, §6, §4, §5

[16] = system: Digitaria; assay: Pre-emergence test, Digitaria; format: in vivo; conditions: pre-emergence/greenhouse; 125 g a.i./ha; after three weeks
Method: as §1, §2, §6, §4, §5

[17] = system: Echinochloa; assay: Post-emergence test, Echinochloa; format: in vivo; conditions: post-emergence/greenhouse; 250 g a.i./ha; after three weeks
Method: as §1, §2, §3, §4, §5

[18] = system: Sugar-beet; assay: Post-emergence test, Sugar beet; format: in vivo; conditions: post-emergence/greenhouse; 250 g a.i./ha; after three weeks; crop
Method: as §1, §2, §3, §4, §5

[19] = system: larvae of the mustard beetle (Phaedon cochleariae); assay: Phaedon larvae test; format: in vivo; conditions: 500 ppm, dipped cabbage leaves
Method: (§7) Phaedon Larvae Test • Solvent: 7 parts by weight of dimethylformamide • Emulsifier: 2 parts by weight of alkylaryl polyglycol ether To produce a suitable preparation of active compound, 1 part by weight of active compound is mixed with the stated amounts of solvent and emulsifier, and the concentrate is diluted with emulsifier-containing water to the desired concentration. Cabbage leaves (Brassica oleracea) are treated by being dipped into the preparation of active compound of the desired concentration and are populated with larvae of the mustard beetle (Phaedon cochleariae) while the leaves are still moist. After the desired period of time, the kill in % is determined. 100% means that all beetle larvae have been killed; 0% means that none of the beetle larvae have been killed.

[20] = system: caterpillars of the armyworm (Spodoptera frugiperda); assay: Spodoptera frugiperda test; format: in vivo; conditions: 500 ppm, dipped cabbage leaves
Method: as §7, with “Spodoptera Frugiperda Test” for “Phaedon Larvae Test”, “with caterpillars” for “with larvae”, “the armyworm (Spodoptera frugiperda)” for “the mustard beetle (Phaedon cochleariae)”, “all caterpillar” for “all beetle”, “the caterpillar” for “the beetle larvae”

[21] = system: Oilseed rape; assay: Pre-emergence test, Oilseed rape; format: in vivo; conditions: pre-emergence/greenhouse; 125 g a.i./ha; after three weeks; crop
Method: as §1, §2, §6, §4, §5

[22] = system: green peach aphid (Myzus persicae); assay: Myzus test (systemic action); format: in vivo; conditions: 20 ppm, watering of infested Savoy cabbage (systemic)
Method: Myzus Test (Systemic Action) • Solvent: 7 parts by weight of dimethylformamide • Emulsifier: 2 parts by weight of alkylaryl polyglycol ether To produce a suitable preparation of active compound, 1 part by weight of active compound is mixed with the stated amounts of solvent and emulsifier, and the concentrate is diluted with emulsifier-containing water to the desired concentration. Savoy cabbage (Brassica oleracea) which is heavily infested by the green peach aphid (Myzus persicae) is watered with in each case 10 ml of preparation of active compound of the desired concentration such that the preparation of active compound penetrates into the soil without wetting the seedling. The active compound is taken up by the roots and transferred into the seedling. After the desired period of time, the kill in % is determined. 100% means that all aphids have been killed; 0% means that none of the aphids have been killed.

[23] = system: Wheat; assay: Pre-emergence test, Wheat; format: in vivo; conditions: pre-emergence/greenhouse; 125 g a.i./ha; after three weeks; crop
Method: as §1, §2, §6, §4, §5

[24] = system: Abutilon; assay: Pre-emergence test, Abutilon; format: in vivo; conditions: pre-emergence/greenhouse; 125 g a.i./ha; after three weeks
Method: as §1, §2, §6, §4, §5

[25] = system: Bromus; assay: Pre-emergence test, Bromus; format: in vivo; conditions: pre-emergence/greenhouse; 125 g a.i./ha; after three weeks
Method: as §1, §2, §6, §4, §5

[26] = system: Ustilago avenae; assay: In vitro test for the ED50 determination in microorganisms, Ustilago avenae; format: cell-based; conditions: 50% inhibition of fungal growth, tested at 0.1, 1, 10 and 100 ppm, 22° C., 3-5 days, photometric 620 nm
[27] = system: Septoria tritici; assay: In vitro test for the ED50 determination in microorganisms, Septoria tritici; format: cell-based; conditions: 50% inhibition of fungal growth, tested at 0.1, 1, 10 and 100 ppm, 22° C., 3-5 days, photometric 620 nm
[28] = system: Pyricularia oryzae; format: cell-based; conditions: 50% inhibition of fungal growth, tested at 0.1, 1, 10 and 100 ppm, 22° C., 3-5 days, photometric 620 nm
[29] = system: Galium; assay: Post-emergence test, Galium; format: in vivo; conditions: post-emergence/greenhouse; 250 g a.i./ha; after three weeks
Method: as §1, §2, §3, §4, §5

Cc1sc(-c2ccc(Cl)cc2)nc1C1=C(O)C(C)(C)CC1=O [Example I-1-a-1]
% damage, Sinapis [1]: 70% | % damage, Setaria [2]: 100% | % damage, Alopecurus [3]: 100% | % damage, Soya bean [4]: 0% | Kill rate in % after 7 d [5]: 100% | % damage, Stellaria [6]: 100% | % damage, Matricaria [7]: 100% | % damage, Lolium [8]: 100% | % damage, Avena fatua [9]: 100% | % damage, Setaria [10]: 100% | Kill rate in % after 14 d [11]: 95%

CCc1sc(-c2ccc(Cl)cc2)nc1C1=C(O)C2(CCCCC2)CC1=O [Example I-1-a-3]
% damage, Sinapis [1]: 80% | % damage, Avena fatua [12]: 100% | % damage, Sugar beet [13]: 0% | % damage, Alopecurus [3]: 90% | % damage, Alopecurus [14]: 95% | % damage, Avena fatua [9]: 100% | % damage, Setaria [10]: 100% | % damage, Polygonum [15]: 100% | % damage, Digitaria [16]: 100%

CCOC(=O)OC1=C(c2nc(-c3ccc(Cl)cc3)sc2C)C(=O)CC1(C)C [Example I-1-c-1]
% damage, Sinapis [1]: 70% | % damage, Echinochloa [17]: 100% | % damage, Sugar-beet [18]: 0% | Kill rate in % after 7 d [5]: 95% | % damage, Avena fatua [9]: 90% | % damage, Setaria [10]: 100% | Kill rate in % after 7 d [19]: 100% | Kill rate in % after 7 d [20]: 100%

CCOC(=O)OC1=C(c2nc(-c3ccc(Cl)cc3)sc2C)C(=O)CC12CCCCC2 [Example I-1-c-2]
% damage, Oilseed rape [21]: 0% | % damage, Alopecurus [14]: 95% | % damage, Stellaria [6]: 100% | % damage, Lolium [8]: 100% | Kill rate in % after 10 d [22]: 95% | % damage, Digitaria [16]: 100%

CCOC(=O)OC1=C(c2nc(-c3ccc(Cl)cc3)sc2CC)C(=O)CC12CCCCC2 [Example I-1-c-3]
% damage, Sinapis [1]: 80% | % damage, Setaria [2]: 100% | % damage, Alopecurus [3]: 100% | % damage, Wheat [23]: 10% | % damage, Soya bean [4]: 0% | % damage, Alopecurus [14]: 95% | Kill rate in % after 7 d [5]: 98% | % damage, Stellaria [6]: 70% | % damage, Lolium [8]: 100% | % damage, Avena fatua [9]: 100% | % damage, Setaria [10]: 100% | Kill rate in % after 14 d [11]: 100%

Cc1sc(-c2ccc(Cl)cc2)nc1C1=C(O)CC(C)(C)CC1=O [Example I-2-a-1]
% damage, Echinochloa [17]: 100% | % damage, Setaria [2]: 100% | % damage, Alopecurus [3]: 90% | % damage, Sugar-beet [18]: 0% | % damage, Abutilon [24]: 70% | % damage, Soya bean [4]: 0% | Kill rate in % after 7 d [5]: 98% | % damage, Lolium [8]: 100% | % damage, Avena fatua [9]: 95% | % damage, Setaria [10]: 100% | Kill rate in % after 7 d [20]: 100% | % damage, Bromus [25]: 95%

Cc1sc(-c2ccc(Cl)cc2)nc1C1=C(O)CCCC1=O [Example I-2-a-2]
ED50 value [26]: <0.1 ppm | ED50 value [27]: <0.1 ppm | ED50 value [28]: 1.96 ppm | Kill rate in % after 7 d [5]: 99%

Cc1sc(-c2ccc(Cl)cc2)nc1C1=C(O)C(C)(C)CCC1=O [Example I-2-a-3]
ED50 value [26]: 0.1 ppm | ED50 value [27]: <0.1 ppm | ED50 value [28]: <0.1 ppm

CCOC(=O)OC1=C(c2nc(-c3ccc(Cl)cc3)sc2C)C(=O)CC(C)(C)C1 [Example I-2-c-1]
% damage, Alopecurus [3]: 90% | Kill rate in % after 7 d [5]: 100% | % damage, Avena fatua [9]: 100% | % damage, Setaria [10]: 100% | % damage, Galium [29]: 80% | Kill rate in % after 7 d [19]: 100% | Kill rate in % after 7 d [20]: 100%
